16 compounds from patent US11564923B2, “Compounds and pharmaceutical compositions thereof for the treatment of inflammatory disorders” (Galapagos NV, priority 2017, dated 2023) can be followed below.

In assay [1] the test system is IL-12 activation of STAT4 in NK-92 cells. As to the kind of experiment: IL-12 activation of STAT4 in NK-92 cells using MSD as readout. The format is cell-based. Particulars: Homo sapiens. As for the experimental part: IL-2 is added freshly to the medium with each medium refreshment step. Cells are cultured in a humidified incubator at 37° C. 5% CO2.
NK-92 cells are pre-incubated with test compounds or vehicle for 30 min at 37° C. 5% CO2. […] NK-92 cells are triggered with rhIL-12 for 45 min at 37° C. 5% CO2.
After 45 min of cytokine stimulation the cells are lysed by addition of 50 μL ice-cold lysis buffer (supplemented with the MSD kit). Plates are frozen at −80° C. for minimal 1 hour to lyse the cells completely. After thawing the levels of phospho-STAT4 are quantified using the Phospho-STAT4 (Tyr693) kit (MSD, Catalogue number K150PAD-2) according to the manufacturer's instructions. Electroluminescent signal is measured on the MSD reader.
The percentage inhibition is calculated as: […]
RLU (trigger/veh): Relative lumescent signal determined in presence of vehicle and trigger
RLU (test compound): Relative luminescent signal determined in presence of test compounds)
PIN values are plotted for compounds tested in dose-response and IC50 values are derived using LIMS Software applying non-linear regression (sigmoidal) curve fitting. The data are expressed as the average IC50 from different experiments.

Assay [2] concerns IFNα activation of STAT1 in PBMC. The experiment in a line: IFNα activation of STAT1 in PBMC. Format: cell-based. Particulars: Homo sapiens. A digest of the protocol: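 Human PBMC, with red cells lysed by NH4Cl, were pre-treated with compound for 30 min at 37 °C and 5% CO2. They were then stimulated for 30 min with recombinant human IFNα at 5 ng/mL final.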
The subject of assay [3] is IL-12 activation of STAT4 in NK-92 cells. The experiment in a line: IL-12 activation of STAT4 in NK-92 cells using AphaLISA SureFire technology. The format is cell-based. Conditions: Homo sapiens. A digest of the protocol:
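NK-92 cells, starved of rhIL-2 overnight, were stimulated with rhIL-12 for 30 min at 37 °C with test compounds, then lysed. Phospho-STAT4 (Tyr693) was read by AlphaLISA SureFire. Percent inhibition versus the vehicle-plus-trigger signal was fitted by sigmoidal nonlinear regression to give IC50, averaged over experiments.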

In assay [4] the target is T1, Recombinant human JAK2 (catalytic domain, amino acids 808-1132) (Homo sapiens, UniProt O60674).
T1 construct: catalytic domain, amino acids 808-1132
As to the kind of experiment: JAK2 inhibition assay. Note: 0.7 µM ATP. Conditions: read-out: JAK2 potency IC50. Format: biochemical.

The target of assay [5] is T2, Recombinant human TYK2 catalytic domain (amino acids 871-1187) (Homo sapiens, UniProt P29597).
T2 construct: catalytic domain (amino acids 871-1187)
T2 sequence (P29597 871-1187): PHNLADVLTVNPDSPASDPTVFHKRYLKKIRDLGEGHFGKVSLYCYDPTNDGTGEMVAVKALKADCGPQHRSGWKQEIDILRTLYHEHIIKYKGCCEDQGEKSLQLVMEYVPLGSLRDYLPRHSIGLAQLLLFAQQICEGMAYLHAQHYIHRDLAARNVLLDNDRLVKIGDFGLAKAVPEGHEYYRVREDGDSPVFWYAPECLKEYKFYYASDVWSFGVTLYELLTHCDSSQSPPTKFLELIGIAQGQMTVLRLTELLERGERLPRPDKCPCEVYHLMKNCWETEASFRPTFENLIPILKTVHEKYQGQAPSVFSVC
The experiment in a line: TYK2 radioactive assay polyGT substrate. Note: 0.1 µM ATP. Format: biochemical. A digest of the protocol: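 Reaction at 30° C. for 120 min, ended with 150 mM phosphoric acid, washed, counted; percent inhibition scaled between vehicle and 10 μM staurosporine cpm.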

The target in assay [6] is T3, Recombinant human JAK1 (catalytic domain, amino acids 866-1154) (Homo sapiens, UniProt P23458).
T3 construct: catalytic domain, amino acids 866-1154
The experiment in a line: JAK1 inhibition assay. Particulars: read-out: JAK1 potency IC50. The format is biochemical.

The target of assay [7] is Recombinant human JAK3 catalytic domain (amino acids 781-1124) (Homo sapiens, UniProt P52333). The experiment in a line: JAK3 inhibition assay. The format is biochemical. A digest of the protocol: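 Radiometric kinase reaction run 45 min at 30° C., stopped with phosphoric acid; activity as vehicle cpm minus 10 μM staurosporine cpm.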
[8] abbreviates: NK92, NK-92 cells, rhIL-12 25 ng/mL, MSD readout, read-out: IL12 pSTAT4 IC50.
Where [9] appears, read: IFNα activation of STAT1 in PBMC, average IC50, read-out: IFNα signaling inhibitory potency IC50.
[10] abbreviates: NK92, IL-12 activation of STAT4 in NK-92 cells, AlphaLISA SureFire, average IC50, read-out: IL12 pSTAT4 IC50.

Structures can show the parent of a compound that is named as a salt. Where two headings read alike, the source gives them in different places.

Sequence of Recombinant human JAK3 catalytic domain (amino acids 781-1124) (P52333 781-1124): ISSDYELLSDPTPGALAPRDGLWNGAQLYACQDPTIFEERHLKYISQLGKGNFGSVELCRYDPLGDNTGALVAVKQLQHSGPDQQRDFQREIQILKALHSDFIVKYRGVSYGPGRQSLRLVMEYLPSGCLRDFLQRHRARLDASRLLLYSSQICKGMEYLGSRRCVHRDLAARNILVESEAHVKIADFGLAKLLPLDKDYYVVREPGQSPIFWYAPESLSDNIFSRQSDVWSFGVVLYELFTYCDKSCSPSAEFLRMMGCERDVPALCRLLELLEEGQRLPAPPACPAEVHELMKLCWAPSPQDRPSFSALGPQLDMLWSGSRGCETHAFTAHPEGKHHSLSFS
T1 sequence (O60674 808-1132): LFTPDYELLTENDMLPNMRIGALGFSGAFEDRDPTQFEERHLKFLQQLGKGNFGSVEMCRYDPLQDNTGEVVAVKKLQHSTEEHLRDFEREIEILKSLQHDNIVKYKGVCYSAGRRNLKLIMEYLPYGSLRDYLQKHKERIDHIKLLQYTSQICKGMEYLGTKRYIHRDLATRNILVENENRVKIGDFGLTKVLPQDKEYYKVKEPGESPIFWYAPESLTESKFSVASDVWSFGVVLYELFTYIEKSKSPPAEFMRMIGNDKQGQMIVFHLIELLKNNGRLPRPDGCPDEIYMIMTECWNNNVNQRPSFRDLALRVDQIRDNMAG
T3 sequence (P23458 866-1154): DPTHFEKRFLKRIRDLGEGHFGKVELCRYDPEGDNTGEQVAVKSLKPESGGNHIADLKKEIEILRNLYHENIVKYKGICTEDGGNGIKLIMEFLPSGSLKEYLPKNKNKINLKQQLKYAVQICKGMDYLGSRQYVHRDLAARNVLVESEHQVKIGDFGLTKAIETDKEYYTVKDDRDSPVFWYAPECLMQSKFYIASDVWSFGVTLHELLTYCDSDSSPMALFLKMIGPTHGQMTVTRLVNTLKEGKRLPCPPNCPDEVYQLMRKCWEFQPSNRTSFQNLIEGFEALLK

As for `Cc1cc(S(C)(=O)=O)cc(F)c1Oc1cc(Nc2cc(N)ncn2)c2ncn(C)c2n1` [Compound 2, N-[5-(2-Fluoro-4-methanesulfonyl-6-methyl-phenoxy)-3-methyl-3H-imidazo[4,5-b]pyridin-7-yl]-pyrimidine-4,6-diamine], the IC50 (in general, the concentration that inhibits the measured activity by half) in assay [1] (NK92, read-out: IL12 pSTAT4 IC50) is 259 nM; in assay [2] (PBMC, read-out: IFNα signaling inhibitory potency IC50 (nM)) it was 87 nM; in assay [3] (NK92, read-out: IL12 pSTAT4 IC50 (nM)), 73.5 nM.

`CN(c1cc(Nc2cc(N)ncn2)c2ncn(C)c2n1)C1CCOCC1(C)C` (stereo not drawn) [Compound 11, N7-(6-Amino-pyrimidin-4-yl)-N5-(3,3-dimethyl-tetrahydro-pyran-4-yl)-3,N5-dimethyl-3H-imidazo[4,5-b]pyridine-5,7-diamine]: the IC50 in assay [4] was determined as 4.75 nM; in assay [5], 1.81 nM; in assay [1] (setting [8]) it was 377 nM; in assay [6], 27.2 nM; in assay [7], 143 nM.

Regarding `CN(c1cc(Nc2cc(N)ncn2)c2ncn(C)c2n1)c1c(F)cc(C#N)cc1C1CC1` [Compound 14, 4-{[7-(6-Amino-pyrimidin-4-ylamino)-3-methyl-3H-imidazo[4,5-b]pyridin-5-yl]-methyl-amino}-3-cyclopropyl-5-fluoro-benzonitrile], the IC50 in assay [4] worked out at 17 nM; in assay [5], 3.83 nM; in assay [1] (setting [8]), 1500 nM; in assay [6], 91.4 nM; in assay [7] it was 279 nM.

For the compound `C[C@H]1COCC[C@@H]1N(C)c1cc(Nc2cc(N)ncn2)c2ncn(C)c2n1` [Compound 17, N7-(6-Amino-pyrimidin-4-yl)-3,N5-dimethyl-N5-((3R,4S)-3-methyl-tetrahydro-pyran-4-yl)-3H-imidazo[4,5-b]pyridine-5,7-diamine], the IC50 in assay [4] came out at 14.6 nM; in assay [5], 10.2 nM; in assay [1] (setting [8]), 905 nM; in assay [6], 64.6 nM; in assay [7], 237 nM.

Consider `CN(c1cc(Nc2cc(N)ncn2)c2ncn(C)c2n1)C12CC(C1)C2` [Compound 18, N7-(6-Amino-pyrimidin-4-yl)-N5-bicyclo[1.1.1]pent-1-yl-3,N5-dimethyl-3H-imidazo[4,5-b]pyridine-5,7-diamine], for which the IC50 in assay [4] was found to be 31.5 nM; in assay [5], 30.5 nM; in assay [1] (setting [8]), 4680 nM; in assay [6], 294 nM; in assay [7], 187 nM.

Consider `Cc1cc(C#N)ncc1Oc1cc(Nc2ccc(C(=O)NCC(C)O)cn2)c2ncn(C)c2n1` (stereo not drawn) [Compound 24, 6-[5-(6-Cyano-4-methyl-pyridin-3-yloxy)-3-methyl-3H-imidazo[4,5-b]pyridin-7-ylamino]-N-(2-hydroxy-propyl)-nicotinamide], for which the values for the IC50 in assay [5], in assay [1] (setting [8]) and in assay [2] (setting [9]) were 9.01 nM, 3370 nM and 151 nM, respectively.

For the compound `CCNC(=O)c1ccc(Nc2cc(Oc3cnc(C#N)cc3C)nc3c2ncn3C)cn1` [Compound 26, 5-[5-(6-Cyano-4-methyl-pyridin-3-yloxy)-3-methyl-3H-imidazo[4,5-b]pyridin-7-ylamino]-pyridine-2-carboxylic acid ethylamide], the IC50 in assay [4] was determined as 873 nM; in assay [5], 74 nM; in assay [1] (setting [8]) it was 1530 nM; in assay [6] it was 338 nM.

As for `Cc1cc(C#N)ncc1Oc1cc(Nc2ccc(CN)cc2)c2ncn(C)c2n1` [Compound 57, 5-[7-[4-(aminomethyl)anilino]-3-methyl-imidazo[4,5-b]pyridin-5-yl]oxy-4-methyl-pyridine-2-carbonitrile formate salt], the IC50 in assay [5] came to 45.4 nM; in assay [1] (setting [8]), 7460 nM; in assay [2] (setting [9]), 405 nM.

In the case of `Cc1cc(C#N)ncc1Oc1cc(Nc2ccc(S(C)(=O)=O)cc2)c2ncn(C)c2n1` [Compound 60, 4-methyl-5-[3-methyl-7-(4-methylsulfonylanilino)imidazo[4,5-b]pyridin-5-yl]oxy-pyridine-2-carbonitrile], the IC50 was found to be 9.72 nM in assay [5], 1150 nM in assay [1] (setting [8]) and 73 nM in assay [2] (setting [9]).

For the compound `Cc1cc(C#N)ncc1Nc1cc(Nc2ccc(C(=O)N(C)C)cc2)c2ncn(C)c2n1` [Compound 66, 4-[[5-[(6-cyano-4-methyl-3-pyridyl)amino]-3-methyl-imidazo[4,5-b]pyridin-7-yl]amino]-N,N-dimethyl-benzamide], the half-maximal inhibitory concentration (IC50) in assay [5] came to 11.7 nM; in assay [1] (setting [8]), 1650 nM; in assay [2] (setting [9]) it was 138 nM; in assay [3] (setting [10]), 205 nM.

Consider `CC(Oc1cc(Nc2cc(N)ncn2)c2ncn(C)c2n1)C1CC1` (stereo not drawn) [Compound 72, N4-[5-(1-cyclopropylethoxy)-3-methyl-imidazo[4,5-b]pyridin-7-yl]pyrimidine-4,6-diamine], for which the IC50 in assay [5] turned out to be 1.41 nM; in assay [1] (setting [8]), 27.7 nM; in assay [2] (setting [9]) it was 124 nM; in assay [3] (setting [10]) it was 57.2 nM.

On to `Cc1cc(C#N)ncc1Oc1cc(Nc2ccc(C(=O)N(C)C)nn2)c2ncn(C)c2n1` [Compound 73, 6-[[5-[(6-cyano-4-methyl-3-pyridyl)oxy]-3-methyl-imidazo[4,5-b]pyridin-7-yl]amino]-N,N-dimethyl-pyridazine-3-carboxamide], for which the IC50 in assay [5] is 3.44 nM; in assay [1] (setting [8]), 199 nM; in assay [2] (setting [9]), 81 nM; in assay [3] (setting [10]), 158 nM.

On to `COC1CN(C(=O)c2ccc(Nc3cc(Oc4cnc(C#N)cc4C)nc4c3ncn4C)nn2)C1` [Compound 116, 5-[7-[[6-(3-methoxyazetidine-1-carbonyl)pyridazin-3-yl]amino]-3-methyl-imidazo[4,5-b]pyridin-5-yl]oxy-4-methyl-pyridine-2-carbonitrile], for which the IC50 in assay [4] is 28.3 nM; in assay [5] it was 5.41 nM; in assay [6] it was 151 nM; in assay [7] it was 1200 nM; in assay [2] (setting [9]), 113 nM; in assay [3] (setting [10]) it was 79 nM.

Take `COCC1CN(C(=O)c2ccc(Nc3cc(Oc4cnc(C#N)cc4C)nc4c3ncn4C)nn2)C1` [Compound 117, 5-[7-[[6-[3-(methoxymethyl)azetidine-1-carbonyl]pyridazin-3-yl]amino]-3-methyl-imidazo[4,5-b]pyridin-5-yl]oxy-4-methyl-pyridine-2-carbonitrile]: the concentration for half-maximal inhibition (IC50) is 32.3 nM in assay [4]; 8.47 nM in assay [5]; 205 nM in assay [6]; 2030 nM in assay [7]; 148 nM in assay [2] (setting [9]); 181 nM in assay [3] (setting [10]).

As to `Cc1cc(C#N)ncc1Oc1cc(Nc2ccc(N3CCNCC3)cn2)c2ncn(C)c2n1` [Compound 180, 4-methyl-5-[3-methyl-7-[(5-piperazin-1-yl-2-pyridyl)amino]imidazo[4,5-b]pyridin-5-yl]oxy-pyridine-2-carbonitrile], the IC50 was 18.2 nM in assay [4]; 6.61 nM in assay [5]; 81.7 nM in assay [6]; 409 nM in assay [7]; 84 nM in assay [2] (setting [9]); 769 nM in assay [3] (setting [10]).

Turning to `Cc1cc(C#N)ncc1Oc1cc(Nc2cnn(CCN3CCOCC3)c2)c2ncn(C)c2n1` [Compound 186, 4-methyl-5-[3-methyl-7-[[1-(2-morpholinoethyl)pyrazol-4-yl]amino]imidazo[4,5-b]pyridin-5-yl]oxy-pyridine-2-carbonitrile], the IC50 in assay [4] was found to be 22.2 nM; in assay [5], 6.27 nM; in assay [6], 77.2 nM; in assay [7], 257 nM; in assay [2] (setting [9]), 229 nM; in assay [3] (setting [10]), 241 nM.
